Laboratory results reported in ChEMBL document CHEMBL1782045, “Discovery, synthesis, and investigation of the antitumor activity of novel piperazinylpyrimidine derivatives” (Eur J Med Chem, 2011).

Tests used:
NCI-H522 [1] = test: Cytotoxicity against human NCI-H522 cells after 48 hrs by sulforhodamine B assay; assay type: cell-based; settings: nci-h522, 48 h
KM12 = test: Growth inhibition of human KM12 cells after 48 hrs by sulforhodamine B assay; assay type: functional; settings: KM12, 48 h
HT-29 = test: Cytotoxicity against human HT-29 cells after 48 hrs by sulforhodamine B assay; assay type: cell-based; settings: ht-29, 48 h
[2] = biological target: T1, Mitogen-activated protein kinase 12 (Homo sapiens) (UniProt P53778); test: Binding affinity to human p38-gamma at 10 uM incubated for 1 hr by kinase binding assay relative to untreated control
T1 sequence (whole entry): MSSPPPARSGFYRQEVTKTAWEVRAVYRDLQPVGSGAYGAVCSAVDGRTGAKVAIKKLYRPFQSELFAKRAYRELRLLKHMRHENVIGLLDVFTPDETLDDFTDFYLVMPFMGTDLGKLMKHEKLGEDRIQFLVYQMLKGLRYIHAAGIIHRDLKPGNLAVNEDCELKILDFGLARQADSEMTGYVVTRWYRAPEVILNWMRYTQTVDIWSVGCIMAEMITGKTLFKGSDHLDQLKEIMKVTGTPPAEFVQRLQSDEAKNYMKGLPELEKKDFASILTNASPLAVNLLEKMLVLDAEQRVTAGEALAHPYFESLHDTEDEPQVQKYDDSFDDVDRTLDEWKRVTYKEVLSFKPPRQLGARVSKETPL

[3] = test system: Mast/stem cell growth factor receptor Kit (Homo sapiens), P10721 [D816H]; test: Binding affinity to human KIT D816H mutant at 10 uM incubated for 1 hr by kinase binding assay relative to untreated control
NCI-H522 [4] = test: Growth inhibition of human NCI-H522 cells after 48 hrs by sulforhodamine B assay; assay type: functional; settings: NCI-H522, 48 h
M14 = test: Cytotoxicity against human M14 cells after 48 hrs by sulforhodamine B assay; assay type: cell-based; settings: m14, 48 h
786-0 = test: Cytotoxicity against human 786-0 cells after 48 hrs by sulforhodamine B assay; assay type: cell-based; settings: 786-0, 48 h
HCT-116 [5] = test: Cytotoxicity against human HCT116 cells after 48 hrs by sulforhodamine B assay; assay type: cell-based; settings: hct-116, 48 h
UO-31 = test: Cytotoxicity against human UO31 cells after 48 hrs by sulforhodamine B assay; assay type: cell-based; settings: uo-31, 48 h
MDA-MB-435 = test: Cytotoxicity against human MDA-MB-435 cells after 48 hrs by sulforhodamine B assay; assay type: cell-based; settings: mda-mb-435, 48 h
SK-MEL-28 = test: Cytotoxicity against human SK-MEL-28 cells after 48 hrs by sulforhodamine B assay; assay type: cell-based; settings: sk-mel-28, 48 h
OVCAR-8 = test: Cytotoxicity against human OVCAR8 cells after 48 hrs by sulforhodamine B assay; assay type: cell-based; settings: ovcar-8, 48 h
[6] = test system: Tyrosine-protein kinase ABL1 (Homo sapiens), P00519 [F317L]; test: Binding affinity to human phosphorylated ABL1 F317L mutant at 10 uM incubated for 1 hr by kinase binding assay relative to untreated control
MDA-MB-231 = test: Growth inhibition of human MDA-MB-231 cells after 48 hrs by sulforhodamine B assay; assay type: functional; settings: MDA-MB-231, 48 h
HCT-116 [7] = test: Growth inhibition of human HCT116 cells after 48 hrs by sulforhodamine B assay; assay type: functional; settings: HCT-116, 48 h
HOP-62 = test: Growth inhibition of human HOP62 cells after 48 hrs by sulforhodamine B assay; assay type: functional; settings: HOP-62, 48 h
SW-620 = test: Cytotoxicity against human SW620 cells after 48 hrs by sulforhodamine B assay; assay type: cell-based; settings: sw-620, 48 h
NCI/ADR-RES = test: Growth inhibition of human NCI/ADR-RES cells after 48 hrs by sulforhodamine B assay; assay type: functional
UACC-62 = test: Growth inhibition of human UACC62 cells after 48 hrs by sulforhodamine B assay; assay type: functional; settings: UACC-62, 48 h
K562 = test: Growth inhibition of human K562 cells after 48 hrs by sulforhodamine B assay; assay type: functional; settings: K562, 48 h
COLO 205 = test: Cytotoxicity against human COLO205 cells after 48 hrs by sulforhodamine B assay; assay type: cell-based; settings: colo 205, 48 h
[8] = test system: Mast/stem cell growth factor receptor Kit (Homo sapiens), P10721 [D816H]; test: Inhibition of human KIT D816H using gamma-33P-ATP as substrate assessed as enzyme functional activity at 1 uM by scintillation counting relative to untreated control; design: scale not given: the % may be the effect or the level left
[9] = test system: T2, Receptor-type tyrosine-protein kinase FLT3 (Homo sapiens), P36888 [K663Q]; test: Binding affinity to human FLT3 K663Q mutant at 10 uM incubated for 1 hr by kinase binding assay relative to untreated control
T2 sequence (whole entry): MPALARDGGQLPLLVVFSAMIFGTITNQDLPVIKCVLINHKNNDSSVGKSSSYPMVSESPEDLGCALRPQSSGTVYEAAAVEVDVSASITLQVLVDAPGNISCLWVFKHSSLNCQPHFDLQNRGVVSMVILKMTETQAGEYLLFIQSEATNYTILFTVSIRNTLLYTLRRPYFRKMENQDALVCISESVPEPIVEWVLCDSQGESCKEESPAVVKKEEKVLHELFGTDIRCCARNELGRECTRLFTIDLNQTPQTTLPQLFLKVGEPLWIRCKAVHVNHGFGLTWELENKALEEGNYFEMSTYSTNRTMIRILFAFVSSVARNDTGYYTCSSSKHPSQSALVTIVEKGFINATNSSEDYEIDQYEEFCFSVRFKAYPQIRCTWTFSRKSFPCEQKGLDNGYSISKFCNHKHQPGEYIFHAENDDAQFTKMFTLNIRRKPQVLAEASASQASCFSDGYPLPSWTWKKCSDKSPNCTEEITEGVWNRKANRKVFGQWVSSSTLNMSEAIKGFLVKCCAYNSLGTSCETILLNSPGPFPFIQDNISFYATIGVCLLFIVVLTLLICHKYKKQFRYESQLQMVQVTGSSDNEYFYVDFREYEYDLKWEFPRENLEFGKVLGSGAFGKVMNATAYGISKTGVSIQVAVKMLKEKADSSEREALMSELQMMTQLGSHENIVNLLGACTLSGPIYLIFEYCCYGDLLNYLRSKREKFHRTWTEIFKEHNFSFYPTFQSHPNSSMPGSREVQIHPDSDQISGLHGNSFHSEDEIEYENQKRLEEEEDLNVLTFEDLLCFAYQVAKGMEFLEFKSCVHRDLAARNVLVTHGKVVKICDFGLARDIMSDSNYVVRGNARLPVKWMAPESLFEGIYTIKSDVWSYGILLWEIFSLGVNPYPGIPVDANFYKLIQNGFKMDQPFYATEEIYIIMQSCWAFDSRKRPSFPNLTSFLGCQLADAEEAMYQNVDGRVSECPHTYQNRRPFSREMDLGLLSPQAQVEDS

[10] = biological target: Casein kinase I isoform gamma-2 (Homo sapiens) (UniProt P78368); test: Binding affinity to human CSNK1G2 at 10 uM incubated for 1 hr by kinase binding assay relative to untreated control
A549 = test: Growth inhibition of human A549 cells after 48 hrs by sulforhodamine B assay; assay type: functional; settings: A549, 48 h
RXF 393 = test: Cytotoxicity against human RXF393 cells after 48 hrs by sulforhodamine B assay; assay type: cell-based; settings: rxf 393, 48 h

Sequence of Tyrosine-protein kinase ABL1 (Homo sapiens), P00519 [F317L] (P00519 whole entry F317L): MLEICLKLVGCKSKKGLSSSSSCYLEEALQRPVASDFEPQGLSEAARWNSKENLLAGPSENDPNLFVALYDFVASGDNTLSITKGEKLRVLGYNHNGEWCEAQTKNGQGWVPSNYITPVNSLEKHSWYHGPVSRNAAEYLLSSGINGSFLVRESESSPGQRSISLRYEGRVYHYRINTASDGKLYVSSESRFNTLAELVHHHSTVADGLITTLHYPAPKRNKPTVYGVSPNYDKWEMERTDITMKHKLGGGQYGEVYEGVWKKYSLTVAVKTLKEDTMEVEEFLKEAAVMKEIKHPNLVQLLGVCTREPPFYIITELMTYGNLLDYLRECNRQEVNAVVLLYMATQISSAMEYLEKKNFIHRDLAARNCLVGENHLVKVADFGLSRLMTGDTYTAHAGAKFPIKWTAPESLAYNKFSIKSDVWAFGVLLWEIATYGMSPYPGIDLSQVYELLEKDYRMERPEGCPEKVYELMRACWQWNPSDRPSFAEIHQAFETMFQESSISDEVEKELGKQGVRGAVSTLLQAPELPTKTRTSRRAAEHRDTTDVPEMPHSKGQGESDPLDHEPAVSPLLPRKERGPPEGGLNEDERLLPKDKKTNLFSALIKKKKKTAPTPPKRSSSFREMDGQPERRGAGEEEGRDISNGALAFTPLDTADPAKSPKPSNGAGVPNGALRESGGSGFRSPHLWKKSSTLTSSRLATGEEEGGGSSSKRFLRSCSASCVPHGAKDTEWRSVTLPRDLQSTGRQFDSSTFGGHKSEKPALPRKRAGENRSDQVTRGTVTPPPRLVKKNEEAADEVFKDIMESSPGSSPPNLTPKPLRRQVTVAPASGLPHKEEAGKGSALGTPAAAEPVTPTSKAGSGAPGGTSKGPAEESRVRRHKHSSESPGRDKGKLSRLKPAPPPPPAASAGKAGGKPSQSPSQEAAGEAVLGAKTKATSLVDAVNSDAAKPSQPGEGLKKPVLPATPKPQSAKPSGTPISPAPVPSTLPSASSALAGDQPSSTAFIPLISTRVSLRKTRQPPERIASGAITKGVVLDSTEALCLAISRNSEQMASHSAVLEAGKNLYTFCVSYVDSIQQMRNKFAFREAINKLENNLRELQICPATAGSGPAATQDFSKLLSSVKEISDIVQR
Sequence of Casein kinase I isoform gamma-2 (Homo sapiens) (P78368 whole entry, looked up, canonical isoform): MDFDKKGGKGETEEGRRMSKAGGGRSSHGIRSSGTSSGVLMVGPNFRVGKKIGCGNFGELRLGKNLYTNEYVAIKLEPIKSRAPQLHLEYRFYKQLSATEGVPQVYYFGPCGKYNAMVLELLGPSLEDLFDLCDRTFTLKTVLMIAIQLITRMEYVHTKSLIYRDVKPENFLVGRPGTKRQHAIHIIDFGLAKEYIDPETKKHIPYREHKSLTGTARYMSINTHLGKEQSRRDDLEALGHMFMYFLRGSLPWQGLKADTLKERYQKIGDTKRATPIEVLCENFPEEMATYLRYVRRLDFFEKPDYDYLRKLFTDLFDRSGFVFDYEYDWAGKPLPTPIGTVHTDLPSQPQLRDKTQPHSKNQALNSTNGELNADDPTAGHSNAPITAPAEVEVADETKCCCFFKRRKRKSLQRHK
Sequence of Mast/stem cell growth factor receptor Kit (Homo sapiens), P10721 [D816H] (P10721 whole entry D816H): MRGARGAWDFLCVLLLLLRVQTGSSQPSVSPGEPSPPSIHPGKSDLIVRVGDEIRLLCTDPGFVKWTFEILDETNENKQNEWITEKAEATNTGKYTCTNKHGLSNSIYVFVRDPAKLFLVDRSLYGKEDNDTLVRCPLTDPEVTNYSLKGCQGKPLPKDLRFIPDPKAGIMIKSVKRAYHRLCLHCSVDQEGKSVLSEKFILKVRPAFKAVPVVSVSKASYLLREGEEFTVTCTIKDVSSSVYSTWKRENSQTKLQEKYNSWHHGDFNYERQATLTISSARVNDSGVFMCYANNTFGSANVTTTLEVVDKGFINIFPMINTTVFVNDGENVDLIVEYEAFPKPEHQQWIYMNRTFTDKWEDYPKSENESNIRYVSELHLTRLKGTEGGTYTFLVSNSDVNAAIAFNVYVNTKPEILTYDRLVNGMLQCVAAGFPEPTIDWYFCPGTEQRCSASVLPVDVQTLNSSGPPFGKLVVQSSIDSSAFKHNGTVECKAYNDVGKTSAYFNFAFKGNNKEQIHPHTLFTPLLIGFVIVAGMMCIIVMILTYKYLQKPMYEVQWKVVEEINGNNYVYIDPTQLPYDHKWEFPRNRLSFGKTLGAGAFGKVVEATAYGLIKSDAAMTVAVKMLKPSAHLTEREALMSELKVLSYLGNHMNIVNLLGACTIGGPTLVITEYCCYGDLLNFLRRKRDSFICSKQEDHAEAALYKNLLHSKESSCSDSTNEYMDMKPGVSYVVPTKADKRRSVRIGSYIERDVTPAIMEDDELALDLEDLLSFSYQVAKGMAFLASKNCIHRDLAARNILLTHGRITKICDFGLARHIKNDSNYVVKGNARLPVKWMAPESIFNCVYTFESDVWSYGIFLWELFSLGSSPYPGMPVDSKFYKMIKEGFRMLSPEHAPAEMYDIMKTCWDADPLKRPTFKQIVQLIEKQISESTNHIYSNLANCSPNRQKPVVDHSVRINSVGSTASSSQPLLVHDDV

| SMILES | LC50 (NCI-H522 [1]) [µM] | TGI (KM12) [µM] | LC50 (HT-29) [µM] | Activity [2] [%] | Activity [3] [%] | TGI (NCI-H522 [4]) [µM] | LC50 (M14) [µM] | LC50 (786-0) [µM] | LC50 (HCT-116 [5]) [µM] | LC50 (UO-31) [µM] | LC50 (MDA-MB-435) [µM] | LC50 (SK-MEL-28) [µM] | LC50 (OVCAR-8) [µM] | Activity [6] [%] | TGI (MDA-MB-231) [µM] | TGI (HCT-116 [7]) [µM] | TGI (HOP-62) [µM] | LC50 (SW-620) [µM] | TGI (NCI/ADR-RES) [µM] | TGI (UACC-62) [µM] | also measured |
| --- | --- | --- | --- | --- | --- | --- | --- | --- | --- | --- | --- | --- | --- | --- | --- | --- | --- | --- | --- | --- | --- |
| O=C(c1cccc(Nc2ncnc3ccccc23)c1)N1CCN(c2ncc(Cc3ccccc3)cn2)CC1 | 5.13 | 2.4 | > 100 | 25 | > 50 | 2.09 | 4.68 | > 100 | > 100 | 4.37 | 4.57 | 5.25 | > 100 | > 50 | 2.95 | 3.55 | 3.47 | > 100 | 8.51 | 1.86 | TGI (K562): 2.23 µM; LC50 (COLO 205): 5.5 µM; Activity [8]: 100%; Activity [9]: > 50%; Activity [10]: 43%; TGI (A549): 3.09 µM; LC50 (RXF 393): > 100 µM |
| CCc1cnc(N2CCN(C(=O)c3ccc(CNc4ncnc5ccccc45)cc3)CC2)nc1 | > 100 | 24.3 | > 100 | > 50 | > 50 | 55.4 | 93.7 | > 100 | > 100 | > 100 | > 100 | > 100 | > 100 | 6.8 | 84.9 | 25 | > 100 | > 100 | 21.5 | 80.9 | TGI (K562): > 100 µM; LC50 (COLO 205): > 100 µM; Activity [8]: 100%; Activity [9]: > 50%; Activity [10]: 18%; TGI (A549): > 100 µM; LC50 (RXF 393): > 100 µM |
| c1ccc(Cc2cnc(N3CCN(c4ncnc5ccccc45)CC3)nc2)cc1 | > 100 | 25.1 | 79.2 | > 50 | 30 | 40.3 | 51.6 | > 100 | 36.4 | > 100 | 91.4 | > 100 | 71.3 | > 50 | 38.1 | 13.2 | 51.6 | 59.9 | 17.6 | 25.9 | TGI (K562): > 100 µM; LC50 (COLO 205): > 100 µM; Activity [8]: 30%; Activity [9]: 4%; Activity [10]: > 50%; TGI (A549): 35.7 µM; LC50 (RXF 393): > 100 µM |
